According to ChEMBL document CHEMBL1144996 (J Med Chem, 2003):

How the values were obtained:
[1] = target: Carbonic anhydrase 1 (Homo sapiens, UniProt P00915)
[2] = target: Carbonic anhydrase 2 (Homo sapiens, UniProt P00918)
[3] = target: Carbonic anhydrase 9 (Homo sapiens, UniProt Q16790)

Chain of Carbonic anhydrase 1 (P00915 whole entry): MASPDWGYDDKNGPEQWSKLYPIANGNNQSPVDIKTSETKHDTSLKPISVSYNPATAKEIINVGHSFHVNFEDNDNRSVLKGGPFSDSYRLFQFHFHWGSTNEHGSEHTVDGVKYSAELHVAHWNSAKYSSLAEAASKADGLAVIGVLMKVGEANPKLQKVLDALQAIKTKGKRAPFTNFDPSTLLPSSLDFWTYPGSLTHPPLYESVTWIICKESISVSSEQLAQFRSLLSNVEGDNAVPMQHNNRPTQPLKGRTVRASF

| SMILES | Ki [1] [nM] | Ki [2] [nM] | Ki [3] [nM] |
| --- | --- | --- | --- |
| C[C@]12CC[C@@H]3c4ccc(O)cc4CC[C@H]3[C@@H]1CC[C@@H]2OS(N)(=O)=O | 15 | 13 | 32 |
| C[C@]12CC[C@@H]3c4ccc(OS(N)(=O)=O)cc4CC[C@H]3[C@@H]1CC[C@@H]2OS(N)(=O)=O | 6 | 5 | 58 |
| NS(=O)(=O)Oc1ccc([N+](=O)[O-])cc1 | 40 | 1.5 | 36 |
| NS(=O)(=O)Oc1ccc(Cl)cc1 | 4.6 |  | 18 |
| N#Cc1ccc(OS(N)(=O)=O)cc1 | 480 | 149 | 41 |
| NS(=O)(=O)Oc1ccc(I)cc1 | 9.5 | 3.8 | 23 |
| Cc1ccc(OS(N)(=O)=O)cc1 | 3.8 | 1.9 | 59 |
| NS(=O)(=O)Oc1ccc(Br)cc1 | 7.3 |  | 19 |
| CC1(C)OCC(C2OC3OC(C)(C)OC3[C@H]2OS(N)(=O)=O)O1 (some centres not stated) | 278 | 15 | 39 |
| NS(=O)(=O)Oc1c(Cl)cc(Cl)cc1Cl | 454 | 138 | 37 |
| NS(=O)(=O)Oc1ccc(-c2ccccc2)cc1 | 113 | 95 | 50 |
| NS(=O)(=O)OCCOc1ccc(-n2ccnc2)cc1 | 28 | 23 | 26 |
| CC(=O)Nc1ccc(OS(N)(=O)=O)cc1 | 37 | 18 | 45 |
| NS(=O)(=O)Oc1ccc(Oc2ccccc2)cc1 | 115 | 98 | 51 |
| CC(C)(C)c1ccc(OS(N)(=O)=O)cc1 | 43 | 2.9 |  |
| C[C@]12CCC(OS(N)(=O)=O)CC1=CCC1C2CC[C@]2(C)C(=O)CCC12 (some centres not stated) | 31 | 27 | 44 |
| CC1(C)O[C@@H]2[C@H](O1)[C@H]1OC(C)(C)OC1O[C@@H]2COS(N)(=O)=O (some centres not stated) | 315 | 29 | 32 |
| COc1ccc(OS(N)(=O)=O)cc1 | 33 | 1.6 | 34 |
| C[C@]12CC[C@@H]3c4ccc(OS(N)(=O)=O)cc4CC[C@H]3[C@@H]1CCC2=O [EMATE] | 37 |  |  |
| NS(=O)(=O)Oc1ccccc1 [PHENYLSULFAMATE] | 2.1 |  | 63 |
| NS(=O)(=O)Oc1c(Cl)c(Cl)c(Cl)c(Cl)c1Cl [SULFAMIC ACID PENTACHLOROPHENYL ESTER] | 432 | 125 | 39 |
